Reference: ChEMBL document CHEMBL5291721, “A preclinical secondary pharmacology resource illuminates target-adverse drug reaction associations of marketed drugs” (Nat Commun, 2023)

How the values were obtained:
[1] = target: T1, Alpha-2C adrenergic receptor (Homo sapiens, UniProt P18825); assay type: functional
T1 sequence (P18825 whole entry): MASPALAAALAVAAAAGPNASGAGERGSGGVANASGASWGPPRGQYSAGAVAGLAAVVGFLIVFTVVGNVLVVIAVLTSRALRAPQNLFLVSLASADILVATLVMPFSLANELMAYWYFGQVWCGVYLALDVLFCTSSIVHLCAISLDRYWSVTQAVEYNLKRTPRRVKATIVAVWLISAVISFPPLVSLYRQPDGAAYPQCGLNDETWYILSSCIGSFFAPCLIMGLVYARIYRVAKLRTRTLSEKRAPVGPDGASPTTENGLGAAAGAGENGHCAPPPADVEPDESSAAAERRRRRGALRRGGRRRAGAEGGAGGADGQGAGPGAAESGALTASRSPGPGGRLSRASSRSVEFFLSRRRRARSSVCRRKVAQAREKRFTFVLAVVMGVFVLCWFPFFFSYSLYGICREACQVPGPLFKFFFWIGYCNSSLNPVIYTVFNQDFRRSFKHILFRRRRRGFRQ

[2] = target: T2, Equilibrative nucleoside transporter 1 (Homo sapiens, UniProt Q99808)
T2 sequence (Q99808 whole entry): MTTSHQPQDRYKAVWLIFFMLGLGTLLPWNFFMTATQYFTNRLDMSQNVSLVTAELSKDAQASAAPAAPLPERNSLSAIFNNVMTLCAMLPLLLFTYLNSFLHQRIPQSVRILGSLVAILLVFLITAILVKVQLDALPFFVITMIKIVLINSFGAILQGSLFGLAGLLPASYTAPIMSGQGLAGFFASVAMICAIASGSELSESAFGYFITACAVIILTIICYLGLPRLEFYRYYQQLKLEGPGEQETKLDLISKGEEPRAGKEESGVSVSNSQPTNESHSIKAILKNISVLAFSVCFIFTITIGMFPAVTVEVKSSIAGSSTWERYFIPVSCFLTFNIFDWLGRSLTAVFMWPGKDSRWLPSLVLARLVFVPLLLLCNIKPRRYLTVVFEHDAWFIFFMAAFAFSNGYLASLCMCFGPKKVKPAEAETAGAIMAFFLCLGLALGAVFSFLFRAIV

D(3) dopamine receptor = D(3) dopamine receptor (Homo sapiens, UniProt P35462)
[3] = target: Gamma-aminobutyric acid receptor subunit alpha-1 (Rattus norvegicus, UniProt P62813); assay type: functional
[4] = target: T3, 5-hydroxytryptamine receptor 1A (Homo sapiens, UniProt P08908); assay type: functional, cell-based
T3 sequence (P08908 whole entry): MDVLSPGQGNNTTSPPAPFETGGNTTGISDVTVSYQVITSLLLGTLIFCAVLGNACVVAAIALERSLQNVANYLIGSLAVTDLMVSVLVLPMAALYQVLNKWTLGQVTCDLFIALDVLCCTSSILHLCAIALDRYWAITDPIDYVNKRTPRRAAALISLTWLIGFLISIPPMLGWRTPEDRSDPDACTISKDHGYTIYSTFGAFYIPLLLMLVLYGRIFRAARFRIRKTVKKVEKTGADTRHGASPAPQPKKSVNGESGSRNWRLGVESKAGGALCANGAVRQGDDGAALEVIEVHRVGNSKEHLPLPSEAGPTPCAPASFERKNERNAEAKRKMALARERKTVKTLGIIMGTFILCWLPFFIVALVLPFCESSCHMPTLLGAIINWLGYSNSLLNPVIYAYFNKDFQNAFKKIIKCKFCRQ

[5] = target: Sodium-dependent noradrenaline transporter (Homo sapiens, UniProt P23975)
[6] = target: T4, Type-1 angiotensin II receptor (Homo sapiens, UniProt P30556)
T4 sequence (P30556 whole entry): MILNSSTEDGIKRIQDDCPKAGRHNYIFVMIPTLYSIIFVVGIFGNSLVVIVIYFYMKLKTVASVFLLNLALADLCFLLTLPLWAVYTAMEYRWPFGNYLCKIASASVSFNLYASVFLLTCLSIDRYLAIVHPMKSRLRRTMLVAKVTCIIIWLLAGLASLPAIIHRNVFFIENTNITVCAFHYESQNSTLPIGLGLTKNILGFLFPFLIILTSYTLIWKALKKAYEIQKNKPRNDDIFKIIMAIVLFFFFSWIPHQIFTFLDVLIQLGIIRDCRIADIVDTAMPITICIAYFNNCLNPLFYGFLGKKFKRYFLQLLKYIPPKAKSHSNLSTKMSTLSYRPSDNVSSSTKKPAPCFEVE

[7] = target: T5, Amine oxidase [flavin-containing] A (Homo sapiens, UniProt P21397); assay type: functional
T5 sequence (P21397 whole entry): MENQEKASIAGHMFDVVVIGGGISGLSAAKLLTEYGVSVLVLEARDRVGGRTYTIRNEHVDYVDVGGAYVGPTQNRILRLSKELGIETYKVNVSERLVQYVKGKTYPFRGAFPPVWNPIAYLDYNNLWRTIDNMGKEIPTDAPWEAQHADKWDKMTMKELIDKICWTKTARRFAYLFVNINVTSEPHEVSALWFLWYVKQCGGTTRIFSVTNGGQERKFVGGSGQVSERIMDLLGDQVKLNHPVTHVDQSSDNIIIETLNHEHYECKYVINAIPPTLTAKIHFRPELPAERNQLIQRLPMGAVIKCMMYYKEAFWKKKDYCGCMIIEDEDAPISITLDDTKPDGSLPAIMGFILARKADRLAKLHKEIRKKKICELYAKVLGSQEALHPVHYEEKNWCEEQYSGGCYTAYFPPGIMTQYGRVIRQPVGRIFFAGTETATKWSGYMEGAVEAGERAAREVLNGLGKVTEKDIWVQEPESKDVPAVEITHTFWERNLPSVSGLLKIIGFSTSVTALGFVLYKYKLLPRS

Adenosine receptor A2a = Adenosine receptor A2a (Homo sapiens, UniProt P29274)
[8] = target: Neuronal acetylcholine receptor subunit alpha-4 (Homo sapiens, UniProt P43681)
Note: assay procedure not described here.

Sequence of Sodium-dependent noradrenaline transporter (P23975 whole entry): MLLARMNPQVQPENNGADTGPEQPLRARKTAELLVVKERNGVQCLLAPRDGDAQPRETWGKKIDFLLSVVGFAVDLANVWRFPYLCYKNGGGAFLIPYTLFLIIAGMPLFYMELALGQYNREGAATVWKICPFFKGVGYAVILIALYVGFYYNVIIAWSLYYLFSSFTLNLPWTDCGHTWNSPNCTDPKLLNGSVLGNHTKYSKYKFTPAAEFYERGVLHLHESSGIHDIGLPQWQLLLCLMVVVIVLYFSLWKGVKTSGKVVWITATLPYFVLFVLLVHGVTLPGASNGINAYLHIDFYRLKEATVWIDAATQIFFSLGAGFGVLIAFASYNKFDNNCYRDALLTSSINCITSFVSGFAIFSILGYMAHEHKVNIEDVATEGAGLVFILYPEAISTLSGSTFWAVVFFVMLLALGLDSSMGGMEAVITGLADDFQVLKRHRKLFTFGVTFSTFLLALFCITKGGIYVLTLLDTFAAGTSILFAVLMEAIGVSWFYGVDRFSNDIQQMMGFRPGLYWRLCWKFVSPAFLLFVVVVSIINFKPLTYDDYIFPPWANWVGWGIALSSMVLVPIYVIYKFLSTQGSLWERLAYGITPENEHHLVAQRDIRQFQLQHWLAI
Sequence of Adenosine receptor A2a (P29274 whole entry): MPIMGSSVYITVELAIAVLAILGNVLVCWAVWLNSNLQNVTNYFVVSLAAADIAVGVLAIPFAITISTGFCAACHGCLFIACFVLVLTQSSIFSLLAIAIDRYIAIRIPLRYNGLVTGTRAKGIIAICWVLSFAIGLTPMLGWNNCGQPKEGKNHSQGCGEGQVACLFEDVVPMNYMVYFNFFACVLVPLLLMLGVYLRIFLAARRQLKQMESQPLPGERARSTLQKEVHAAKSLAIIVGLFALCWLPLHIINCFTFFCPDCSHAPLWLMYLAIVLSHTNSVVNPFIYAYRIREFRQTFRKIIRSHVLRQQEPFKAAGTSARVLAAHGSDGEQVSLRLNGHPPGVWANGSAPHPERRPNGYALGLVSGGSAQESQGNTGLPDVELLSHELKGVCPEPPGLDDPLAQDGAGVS
Sequence of Gamma-aminobutyric acid receptor subunit alpha-1 (P62813 whole entry): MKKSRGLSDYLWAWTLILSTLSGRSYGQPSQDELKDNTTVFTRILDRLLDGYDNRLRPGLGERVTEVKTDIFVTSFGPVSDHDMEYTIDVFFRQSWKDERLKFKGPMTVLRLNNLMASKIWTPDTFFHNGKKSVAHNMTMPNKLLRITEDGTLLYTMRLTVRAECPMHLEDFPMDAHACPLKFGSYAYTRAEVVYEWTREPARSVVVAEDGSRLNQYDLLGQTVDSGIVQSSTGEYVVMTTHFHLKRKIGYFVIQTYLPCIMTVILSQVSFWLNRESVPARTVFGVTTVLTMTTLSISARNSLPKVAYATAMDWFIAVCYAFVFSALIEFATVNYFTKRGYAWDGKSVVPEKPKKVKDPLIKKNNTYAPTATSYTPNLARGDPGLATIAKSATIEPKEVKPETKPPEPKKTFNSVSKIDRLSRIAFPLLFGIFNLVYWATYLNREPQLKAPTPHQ
Sequence of Neuronal acetylcholine receptor subunit alpha-4 (P43681 whole entry): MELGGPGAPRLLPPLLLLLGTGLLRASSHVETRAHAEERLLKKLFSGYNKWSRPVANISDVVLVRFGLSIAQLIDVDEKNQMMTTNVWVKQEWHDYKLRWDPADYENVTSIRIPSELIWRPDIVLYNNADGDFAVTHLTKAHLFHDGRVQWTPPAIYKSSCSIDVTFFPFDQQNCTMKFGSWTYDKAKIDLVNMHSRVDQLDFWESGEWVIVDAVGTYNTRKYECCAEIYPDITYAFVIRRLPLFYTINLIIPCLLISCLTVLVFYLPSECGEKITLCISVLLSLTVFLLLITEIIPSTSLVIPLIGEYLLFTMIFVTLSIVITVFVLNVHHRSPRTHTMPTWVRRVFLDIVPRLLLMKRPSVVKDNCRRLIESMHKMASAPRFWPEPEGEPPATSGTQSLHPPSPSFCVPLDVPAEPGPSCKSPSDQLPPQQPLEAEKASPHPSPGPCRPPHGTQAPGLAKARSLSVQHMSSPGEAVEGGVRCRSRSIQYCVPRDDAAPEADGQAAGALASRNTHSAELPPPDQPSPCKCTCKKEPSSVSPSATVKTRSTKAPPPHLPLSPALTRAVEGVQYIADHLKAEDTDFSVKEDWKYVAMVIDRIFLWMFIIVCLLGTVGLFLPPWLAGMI
Sequence of D(3) dopamine receptor (P35462 whole entry): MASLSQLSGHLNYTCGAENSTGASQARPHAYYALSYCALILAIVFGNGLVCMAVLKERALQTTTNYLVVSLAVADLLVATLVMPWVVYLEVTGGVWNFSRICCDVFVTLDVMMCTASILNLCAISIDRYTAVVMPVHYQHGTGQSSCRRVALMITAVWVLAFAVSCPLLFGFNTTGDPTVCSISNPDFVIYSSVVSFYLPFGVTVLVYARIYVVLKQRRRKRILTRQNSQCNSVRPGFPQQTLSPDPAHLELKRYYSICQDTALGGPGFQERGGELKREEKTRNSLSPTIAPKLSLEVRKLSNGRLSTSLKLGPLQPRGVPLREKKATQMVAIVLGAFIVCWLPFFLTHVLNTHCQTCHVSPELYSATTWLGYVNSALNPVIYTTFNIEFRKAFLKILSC

Compound | AC50 [1] | AC50 [2] | AC50 (D(3) dopamine receptor) | AC50 [3] | AC50 [4] | AC50 [5] | AC50 [6] | AC50 [7] | AC50 (Adenosine receptor A2a) | AC50 [8]
NCCCCCC(=O)O [AMINOCAPROIC ACID] | > 10 µM | > 30 µM | > 30 µM | > 10 µM | > 10 µM | 20.4 µM | > 10 µM | > 10 µM | > 10 µM | > 10 µM
CC(=O)Oc1ccccc1C(=O)O [ASPIRIN] | > 10 µM | > 30 µM | > 30 µM | > 10 µM | > 10 µM | > 30 µM | > 30 µM | > 30 µM | > 30 µM | > 10 µM
Cn1cnc2c(F)c(Nc3ccc(Br)cc3F)c(C(=O)NOCCO)cc21 [BINIMETINIB] | > 30 µM | > 30 µM | > 30 µM | > 30 µM | > 30 µM | > 30 µM | > 30 µM | > 30 µM | > 30 µM | > 30 µM
CC(C)C[C@H](NC(=O)[C@H](Cc1ccccc1)NC(=O)c1cnccn1)B(O)O [BORTEZOMIB] | > 30 µM | > 30 µM | > 30 µM | > 30 µM | > 30 µM | > 30 µM | > 30 µM | > 30 µM | > 30 µM | > 30 µM
C[C@H](CS)C(=O)N1CCC[C@H]1C(=O)O [CAPTOPRIL] | > 10 µM | > 30 µM | > 30 µM | > 10 µM | > 30 µM | > 30 µM | > 30 µM | > 10 µM | > 30 µM | > 10 µM
CN(C)CCOC(c1ccc(Cl)cc1)c1ccccn1 (stereo not given) [CARBINOXAMINE] | > 30 µM | > 30 µM | > 30 µM | > 30 µM | > 30 µM | 24 µM | > 30 µM | > 30 µM | > 30 µM | > 30 µM
CCN(CC)CCn1c(=O)c(Cc2ccc(OC)cc2)nc2ccccc21 [CAROVERINE] | 21.5 µM | > 30 µM | 7.34 µM | 19 µM | > 30 µM | > 30 µM | > 30 µM | > 30 µM | > 30 µM | > 30 µM
C[C@H](CCC(=O)O)[C@H]1CC[C@H]2[C@@H]3[C@H](O)C[C@@H]4C[C@H](O)CC[C@]4(C)[C@H]3CC[C@]12C [CHENODIOL] | > 30 µM | > 30 µM | > 30 µM | > 30 µM | > 30 µM | > 30 µM | > 30 µM | > 30 µM | > 30 µM | > 30 µM
O=C(O)[C@H]1/C(=C/CO)O[C@@H]2CC(=O)N21 [CLAVULANIC ACID] | > 30 µM | > 30 µM | > 30 µM | > 30 µM | > 30 µM | > 30 µM | > 30 µM | > 30 µM | > 30 µM | > 30 µM
C[C@H](Nc1ncnc2[nH]cnc12)c1cc2cccc(Cl)c2c(=O)n1-c1ccccc1 [DUVELISIB] | > 30 µM | > 30 µM | > 30 µM | > 30 µM | > 30 µM | > 30 µM | > 30 µM | > 30 µM | > 30 µM | > 30 µM
COC(=O)CCc1ccc(OCC(O)CNC(C)C)cc1 (stereo not given) [ESMOLOL] | > 30 µM | > 30 µM | > 30 µM | > 30 µM | > 30 µM | > 30 µM | > 30 µM | > 30 µM | > 30 µM | > 30 µM
C[C@]12CCC(=O)C=C1CC[C@H]1[C@@H]3CC[C@](O)(C(=O)CO)[C@@]3(C)C[C@H](O)[C@@]12F [FLUDROCORTISONE] | > 10 µM | > 30 µM | > 30 µM | > 10 µM | > 10 µM | > 30 µM | > 30 µM | > 10 µM | > 30 µM | > 10 µM
CCOC(=O)Nc1ccc(NCc2ccc(F)cc2)nc1N [FLUPIRTINE] | > 30 µM | > 30 µM | > 30 µM | > 30 µM | > 30 µM | > 30 µM | > 30 µM | > 30 µM | > 30 µM | > 30 µM
NCC1(CC(=O)O)CCCCC1 [GABAPENTIN] | > 30 µM | > 30 µM | > 30 µM | > 30 µM | > 30 µM | > 30 µM | > 30 µM | > 30 µM | > 30 µM | > 30 µM
OCCOCCN1CCN(C(c2ccccc2)c2ccc(Cl)cc2)CC1 (stereo not given) [HYDROXYZINE] | 2.3 µM | > 30 µM | 0.29 µM | > 10 µM | > 10 µM | > 10 µM | > 30 µM | > 10 µM | > 30 µM | > 10 µM
O=C(c1ccccc1)c1ccc2n1CCC2C(=O)O (stereo not given) [KETOROLAC] | > 30 µM | > 10 µM | > 30 µM | > 30 µM | > 30 µM | > 10 µM | > 10 µM | > 30 µM | > 10 µM | > 10 µM
Nc1nnc(-c2cccc(Cl)c2Cl)c(N)n1 [LAMOTRIGINE] | > 10 µM | > 30 µM | > 10 µM | > 10 µM | > 10 µM | > 10 µM | > 30 µM | 16 µM | > 30 µM | > 10 µM
N[C@@H](Cc1cc(I)c(Oc2cc(I)c(O)c(I)c2)c(I)c1)C(=O)O [LEVOTHYROXINE] | > 30 µM | > 30 µM | > 30 µM | > 30 µM | > 30 µM | > 30 µM | > 30 µM | > 30 µM | > 30 µM | > 30 µM
CNC1(C)C2CCC(C2)C1(C)C (stereo not given) [MECAMYLAMINE] | > 10 µM | > 10 µM | > 30 µM | > 10 µM | > 10 µM | > 10 µM | > 10 µM | > 10 µM | > 10 µM | > 10 µM
